pIC50: −log10 of the molar value.

This passage reports IC50 and IC90 results from PubChem BioAssay AID449764 (Southern Research Specialized Biocontainment Screening …, 2010).

The test system of this assay is Mycobacterium tuberculosis H37Rv growth inhibition, no glycerol. Kind of assay: Confirmatory growth inhibition assay, Mycobacterium tuberculosis H37Rv, absence of glycerol (AID 449764).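 As to all read-outs here: growth read after 7 days of incubation.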 Conditions: for IC90: measured here: IC90 growth inhibition.

In the case of `NCCCn1c(C(=O)c2ccc(Cl)cc2)c2ccc([N+](=O)[O-])cc2[n+]1[O-]`, the pIC50 was 4.47 and the IC90 was found to be 44.2 µM.
For `Cc1cc(Cl)ccc1NNC(=O)CCc1ccccc1` the same measures were 4.08 and greater than 100 µM.
For `Cn1cnnc1SCc1ccc(C(=O)N=Nc2c(O)n(Cc3ccc(Cl)cc3)c3ccccc23)cc1` the same measures were 5.52 and 3.38 µM.
Consider `COc1ccc(C(=O)C[n+]2ccc3c(c2)nc(-c2cc(OC)c(OC)cc2OC)n3C)cc1`, for which the pIC50 is 4.94 and the IC90 came out at 13.1 µM.
For `FC(F)(F)c1ccc(Nc2nnnc3ccccc23)cc1` the same measures were 4.31 and 55.3 µM.
For `Cc1ccc2nc(/C(C#N)=C/c3cn[nH]c3-c3ccc(F)cc3)[nH]c2c1` the same measures were 4.72 and 25.4 µM.
Regarding `Cc1ccc(-c2noc(=O)n2CC(=O)c2ccc(Cl)cc2)cc1`, the IC90 is greater than 50 µM.
For the compound `CCc1ccc(NC(=O)CSc2nc3n[nH]c(C)c3c(=N)n2-c2cccc(OC)c2)cc1`, the pIC50 is 4.14 and the IC90 was greater than 100 µM.
With `Cc1ccc2cc(C)c(N3CCN(c4ccccn4)CC3)nc2c1`, the pIC50 was 4.37 and the IC90 is 46.7 µM.
`COc1ccc(CNC(=O)c2c(N)n(CCCN3CCOCC3)c3nc4ccccc4nc23)cc1`: the pIC50 is 4.03 and the 90% effect concentration (IC90) is greater than 100 µM.
For `Nc1c2c(nc3ccn(Cc4ccccc4)c(=O)c13)CCC2` the same measures were 5.01 and 15.9 µM.
For `CCOC(=O)C1CCN(c2cc3c(cc2NC(=O)c2ccccc2Cl)n(C)c(=O)n3C)CC1` the same measures were 4.35 and 51.2 µM.
For `CCCC(=O)OCCNc1cc(SCCC(=O)OC)c2nonc2c1[N+](=O)[O-]` the same measures were 5.23 and 6.66 µM.
On to `COc1ccccc1OC(=O)c1ccc(S(=O)(=O)N(C)C)cc1`, for which the pIC50 was 4.79 and the IC90 worked out at 35.8 µM.
For `O=C(c1ccc(CNc2c(N3CCCC3)c(=O)c2=O)cc1)N1CC=C(c2ccccc2)CC1` the same measures were 5.84 and 1.62 µM.
On to `COc1cccc(/C=N/Nc2ncnc3scc(-c4ccccc4)c23)c1O`, for which the negative-log IC50 (pIC50) is 5.25 and the IC90 worked out at 6.44 µM.
For `c1ccc2sc(Sc3ncnc4sccc34)nc2c1` the same measures were 4.94 and 12.9 µM.
For `O=C1CCCC2=C1C1c3ccccc3C(=O)N1c1ccc(C(=O)c3ccccc3)cc1N2` (configuration not stated) the same measures were 4.66 and 24.4 µM.
For `O=C(CCn1c(=O)c2cccn2c2cccnc21)N1CCN(c2cccc(Cl)c2)CC1` the same measures were 4.51 and 46.9 µM.
`COc1ccc(C2(c3ccc(OC)cc3)NC(=O)N(CC(=O)Nc3ccc(OC(F)F)cc3)C2=O)cc1`: the pIC50 is 4.60 and the IC90 was 53.9 µM.
For `CC(C)(O)[C@H]1O[C@H]2CC[C@@]3(C)[C@@](O)(CC[C@H]4Cc5c([nH]c6ccccc56)[C@@]43C)C2=CC1=O` the same measures were 4.31 and greater than 100 µM.
Turning to `Cc1cc(C)c2c(CN3CCN(Cc4ccccc4)CC3)cc(=O)oc2c1C`, the pIC50 was 4.32 and the IC90 came to 55.2 µM.
For `CC(C)(C)C(=O)NC(=S)NNC(=O)c1sc2ccccc2c1Cl` the same measures were 4.36 and greater than 100 µM.
Take `O=C(Nc1ccc2nsnc2c1)NC1CCCCC1`: the pIC50 was 4.35 and the IC90 is greater than 100 µM.
As to `FC(F)(Cl)c1nnc2ccc(Cl)nn12`, the pIC50 was 6.14 and the IC90 came to 0.8 µM.
With `Cc1ccc(-n2nc(C)c3c(C)c(CCC(=O)Nc4ccc(CN5CCCC5)cc4)c(C)nc32)cc1`, the pIC50 is 4.80 and the IC90 stood at 22.1 µM.
`O=S1(=O)CCC(N=Cc2ccc(-c3ccc(Cl)cc3)o2)C1` (configuration not stated): the IC90 was greater than 100 µM.
As for `CCOC(=O)CSC1=C(C#N)C(c2ccc(C)cc2)C2=C(CCCC2=O)N1` (configuration not stated), the pIC50 is 4.33 and the IC90 was greater than 100 µM.
For `CCc1ccc(-c2nn(-c3ccccc3)cc2CSC(=N)N)cc1` the same measures were 4.78 and 20.4 µM.
For `Cc1ccc2nc(N/N=C/c3ccccc3C#N)nc(-c3ccccc3)c2c1` the same measures were 4.04 and greater than 100 µM.
Take `COc1ccc(C)cc1Nc1n[n+](-c2ccccc2)c(-c2c(Cl)cccc2Cl)s1`: the pIC50 was 4.73 and the IC90 came out at 24.9 µM.
For `C(=N\Nc1ncnc2sc3c(c12)CCC3)/c1cccs1` the same measures were 4.43 and 54.2 µM.
For `CC(C)(C)c1nn(-c2ccccc2)c2[nH]c(=O)c(CNCc3ccc4c(c3)OCO4)cc12` the same measures were 4.68 and 34.4 µM.
For `O=C(Nc1nnc(-c2ccccc2)o1)c1cc(-c2cccs2)nc2ccccc12` the same measures were 5.75 and 2.94 µM.
In the case of `NC1=NC[C@H](CC2CCCCC2)N1CCc1cc(C(F)(F)F)cc(C(F)(F)F)c1`, the pIC50 is 4.95 and the IC90 is 12.8 µM.
For `O=C(Nc1nc2ccc(F)cc2s1)C1CCN(S(=O)(=O)c2cc([N+](=O)[O-])ccc2Cl)CC1` the same measures were 4.92 and 17.6 µM.
Regarding `Cc1ccc(-c2ccc(C3C(C#N)=C(N)Oc4n[nH]c(C)c43)o2)cc1` (configuration not stated), the IC90 is greater than 100 µM.
As for `CCCCCc1nc2c(c(=O)c3ccccc3n2C)c(=O)n1C1CCCCCC1`, the pIC50 is 4.26 and the IC90 was 77.5 µM.
For `Cc1ccc(C(c2nnnn2Cc2cccs2)N2CCN(Cc3ccc4c(c3)OCO4)CC2)cc1` (configuration not stated) the same measures were 4.61 and 38 µM.
For `O=C(c1cc2ccccc2o1)N1CCN(S(=O)(=O)c2ccc(Cl)s2)CC1` the same measures were 4.81 and 56 µM.
For `CN(Cc1ccco1)c1ncnc2ccc(-c3ccc4c(ccn4C)c3)cc12` the same measures were 4.39 and 59.4 µM.
Turning to `Cc1ccc(-n2c(C)cc(/C=N/NC(N)=S)c2C)cc1`, the pIC50 is 4.91 and the IC90 is 20 µM.
For `COc1ccc(OCC(=O)Nc2c(C(=O)N(CCN(C)C)Cc3ccco3)oc3ccccc23)cc1` the same measures were 4.38 and 45.9 µM.
For `Nc1ccc2cc(Br)ccc2c1` the same measures were 4.27 and 81.6 µM.
For `Cn1nc(C(F)(F)F)c2cc(NC(=O)OCC(C)(C)C)sc21` the same measures were 4.64 and 43.1 µM.
As for `O=C(Nc1cccc(-c2csc(Nc3ccc(Cl)cc3)n2)c1)c1cccc(C(F)(F)F)c1`, the pIC50 is 4.36 and the IC90 was greater than 100 µM.
For `Cc1ccc(C(=O)N/C(=C/c2ccco2)C(=O)OCN2C(=O)c3ccccc3C2=O)cc1` the same measures were 4.79 and 40.4 µM.
In the case of `CC1CCCC(C)N1/N=C/c1c[nH]c2ccc(Br)cc12` (configuration not stated), the pIC50 was 4.64 and the 90% effect concentration (IC90) was determined as 29.1 µM.
Consider `Cc1ccc(C(=O)c2cc(C)sc2NC(=O)CN2CCN(C(=O)c3ccco3)CC2)cc1`, for which the pIC50 was 4.83 and the IC90 amounted to 27.4 µM.
In the case of `CCN(Cc1ccccc1)c1ccc(/C=N/N=C(N)N)cc1`, the pIC50 is 4.73 and the IC90 came to 28.1 µM.
For the compound `Cc1cc(/C=C2\SC(=Nc3ccc(F)cc3)NC2=O)c(C)n1-c1ccc(S(N)(=O)=O)cc1`, the pIC50 was 4.64 and the concentration for an effect of 90% (IC90) worked out at 26.2 µM.
For the compound `COC(=O)c1ccc(Cn2cc(C(F)(F)F)cc([N+](=O)[O-])c2=O)cc1`, the pIC50 is 6.20 and the IC90 is greater than 100 µM.
For `O=[N+]([O-])c1cc(-c2nc(-c3ccncc3)no2)cc([N+](=O)[O-])c1` the same measures were 4.98 and 20.5 µM.
For `COc1cccc(Nc2ccc([N+](=O)[O-])c3nonc23)c1` the same measures were 5.00 and 14.5 µM.
The compound `O=C1NN(c2ccc(Br)cc2)C(=O)/C1=C\c1ccc(O)cc1O` had an IC90 greater than 100 µM.
As for `C=C1C(=O)O[C@@H]2C[C@@H](C)[C@@H]3C4OC4C(=O)[C@@]3(C)[C@@H](O)[C@H]12` (some centres not stated), the pIC50 is 4.98 and the IC90 was 13 µM.
For `C/C(=N\NC(=O)c1ccc(O)cc1)c1ccc2c(c1)Nc1ccccc1S2` the same measures were 4.30 and 95.6 µM.
In the case of `O=c1cc(/C=C/c2ccccc2)oc2ccccc12`, the pIC50 is 4.01 and the IC90 was greater than 100 µM.
For `COc1ccc(COC(=O)CCNC(=O)c2ccc(Cl)cc2)cc1` the same measures were 4.15 and greater than 100 µM.
For `CCOC(=O)C1CCN(C(=O)CSCc2nc(-c3ccc(OCC)cc3)oc2C)CC1` the same measures were 4.34 and 49.2 µM.
On to `O=C(CCSc1ccccn1)c1ccccc1`, for which the pIC50 is 4.61 and the IC90 worked out at 34.1 µM.
`N#CC(C#N)=c1ccc2c(c1)N1C3=C(CCCC3)CC3CCCCC31N=2` (configuration not stated): the pIC50 is 4.90 and the IC90 is 13.5 µM.
Regarding `Cc1ccc(S(=O)(=O)NCc2ccc(C(=O)NCCCN3CCC(Cc4ccccc4)CC3)cc2)cc1`, the IC90 is greater than 100 µM.
On to `CCOc1ccc(NC(=O)c2sc3nc(C)nc(N4CCOCC4)c3c2C)cc1`, for which the pIC50 was 4.52 and the IC90 is 57 µM.
For `COc1cc2c(cc1OC)C1(Nc3c-2c(-c2ccccc2)nn3-c2ccccc2)C(=O)Nc2ccccc21` (configuration not stated) the same measures were 4.09 and greater than 100 µM.
For `CN1CC=C(/C=C/c2ccc(-c3ccccc3)cc2)CC1` the same measures were 4.61 and 28 µM.
Consider `Cc1cc(=O)n2[nH]c(Nc3cccc(Cl)c3)nc2n1`, for which the pIC50 was 4.54 and the IC90 amounted to 68 µM.
For `COc1ccccc1N(O)C1CC(=O)N(c2ccc(Br)cc2)C1=O` (configuration not stated) the same measures were 4.64 and 25.9 µM.
For `CCOC(=O)Cn1c(-c2ccccc2)ccc(C#N)c1=O`, the pIC50 is 4.98 and the IC90 is greater than 50 µM.
On to `CCCn1c(Nc2nc3ccccc3n2C)nc2ccccc21`, for which the negative-log IC50 (pIC50) is 4.18 and the IC90 was 75.8 µM.
For `CC1(C)CC(=O)C2=C(C1)OC(N)=C([N+](=O)[O-])C2c1ccc(C#N)s1` (configuration not stated) the same measures were 4.10 and 97.7 µM.

In general, pIC50 refers to the negative decadic logarithm of the IC50, by convention in mol/L. The term IC90 denotes the concentration at which the effect reaches the 90% level.
